Results taken from ChEMBL document CHEMBL5537143, “Synthesis and antimicrobial properties of guanidine-functionalized labdane type diterpenoids” (Eur J Med Chem, 2024).
In brackets after ≈: the same amount, converted by molar mass.

Assays:
Assay type in all cases: functional
Staphylococcus aureus [1] = experiment: Antimicrobial activity against Staphylococcus aureus ATCC 29213 assessed as inhibition of microbial growth incubated for 24 hrs by broth-microdilution assay
Staphylococcus aureus [2] = experiment: Antimicrobial activity against Staphylococcus aureus ATCC 43300 assessed as inhibition of microbial growth incubated for 24 hrs by broth-microdilution assay
[3] = system: Staphylococcus epidermidis; experiment: Antimicrobial activity against Staphylococcus epidermidis ATCC 35984 assessed as inhibition of microbial growth incubated for 24 hrs by broth-microdilution assay; settings: for MIC: Staphylococcus epidermidis
Staphylococcus aureus [4] = experiment: Antimicrobial activity against methicillin resistant Staphylococcus aureus 43300 assessed as inhibition of microbial growth incubated for 24 hrs by broth-microdilution assay
[5] = system: Staphylococcus epidermidis; experiment: Antimicrobial activity against Staphylococcus epidermidis ATCC 12228 assessed as inhibition of microbial growth incubated for 24 hrs by broth-microdilution assay; settings: for MIC: Staphylococcus epidermidis
Klebsiella pneumoniae [6] = experiment: Antimicrobial activity against Klebsiella pneumoniae ATCC 13883 assessed as inhibition of microbial growth incubated for 24 hrs by broth-microdilution assay; settings: read-out: MIC100
Pseudomonas aeruginosa [7] = experiment: Antimicrobial activity against Pseudomonas aeruginosa PAO1 assessed as inhibition of microbial growth incubated for 24 hrs by broth-microdilution assay; settings: Pseudomonas aeruginosa, PAO1, read-out: MIC100
Candida albicans [8] = experiment: Antifungal activity against Candida albicans ATCC 90028 assessed as reduction in fungal growth incubated for 48 hrs by CLSI based analysis
Klebsiella pneumoniae [9] = experiment: Antimicrobial activity against Klebsiella pneumoniae ATCC BAA1705 assessed as inhibition of microbial growth incubated for 24 hrs by broth-microdilution assay; settings: read-out: MIC100
Candida albicans [10] = experiment: Antifungal activity against Candida albicans ATCC 10231 assessed as reduction in fungal growth incubated for 48 hrs by CLSI based analysis; settings: read-out: MIC100
Pseudomonas aeruginosa [11] = experiment: Antimicrobial activity against Pseudomonas aeruginosa ATCC 27853 assessed as inhibition of microbial growth incubated for 24 hrs by broth-microdilution assay; settings: Pseudomonas aeruginosa, ATCC 27853, read-out: MIC100
Staphylococcus aureus [12] = experiment: Antimicrobial activity against Staphylococcus aureus 29213 assessed as inhibition of microbial growth incubated for 24 hrs by broth-microdilution assay

SMILES	MIC (Klebsiella pneumoniae [9]) [µg/mL]	MIC (Staphylococcus aureus [12]) [µg/mL]	MIC (Candida albicans [8]; read-out: MIC) [µg/mL]	MIC ([3]; ATCC 35984, read-out: MIC) [µg/mL]	MIC (Staphylococcus aureus [4]; read-out: MIC) [µg/mL]	MIC ([5]; ATCC 12228, read-out: MIC) [µg/mL]	further results
Cc1onc(-c2ccccc2)c1C(=O)N[C@@H]1C(=O)N2[C@@H]1SC(C)(C)[C@@H]2C(=O)O [OXACILLIN]							MIC (Staphylococcus aureus [1]; Staphylococcus aureus, ATCC 29213, read-out: MIC100): 2 µg/mL; MIC (Staphylococcus aureus [2]; Staphylococcus aureus, ATCC 43300, read-out: MIC100): 2 µg/mL; MIC ([3]; ATCC 35984, read-out: MIC100): 2 µg/mL; MIC (Staphylococcus aureus [4]; read-out: MIC100): 10 µg/mL; MIC ([5]; ATCC 12228, read-out: MIC100): 2 µg/mL
CC1(C)CCC[C@]2(C)[C@H]3CC[C@](C)(CC(=O)O)O[C@]3(C)CC[C@@H]12	> 128						MIC70 (Staphylococcus aureus [1]): 64 µg/mL; MIC (Klebsiella pneumoniae [6]): > 128 µg/mL; MIC70 (Staphylococcus aureus [2]): 64 µg/mL; MIC (Pseudomonas aeruginosa [7]): > 128 µg/mL; MIC (Candida albicans [8]; read-out: MIC100): > 128 µg/mL; MIC (Candida albicans [10]): > 128 µg/mL; MIC (Pseudomonas aeruginosa [11]): > 128 µg/mL; MIC70 [3]: 64 µg/mL; MIC70 [5]: 64 µg/mL
CC(=O)O[C@](C)(CCC1[C@](C)(OC(C)=O)CC[C@H]2C(C)(C)CCC[C@]12C)C(=O)N=C(N)N (stereo partly specified)		4	16 (≈ 35.4 µM)	4	4	4	
CC1=C(CC/C=C(/C)C(=O)NC(=N)N)[C@@]2(C)CCCC(C)(C)[C@@H]2CC1		4	8 (≈ 23.2 µM)	4	4	4	
C[C@@H](O)[C@H]1C(=O)N2C(C(=O)O)=C(SCCNC=N)C[C@H]12 [IMIPENEM ANHYDROUS]	≥ 4						
CC1=C(CC/C=C(\C)C(=O)N=C(N)N)[C@@]2(C)CCCC(C)(C)[C@@H]2CC1		4	8 (≈ 23.2 µM)	4	4	4	
